Measured values reported in patent US4289775A, “Penicillins” (Karl Thomae GmbH, priority 1979, dated 1981).
Values after ≈ are worked out from the molar mass of the structure shown.

Key:
[1] = tested on: Klebsiella pneumoniae 272; experiment: serial dilution test in the microtiter system, MIC; type: cell-based; details: Klebs. pneum. 272, 37° C., 18-20 hours
Description: (§1) The tests were performed according to the method of the serial dilution test in the microtiter system. The effect of the test substances on bacteriostasis was examined in a fluid medium. The bacteristatic activity was examined at the following concentrations: 80, 40, 20, 10, 5, 2.5, 1.25, 0.6, 0.3, 0.08 and 0.01 μgm/ml.
(§2) The nutrient medium consisted of: 10 gm of peptone, 8 gm of meat extract oxoid, 3 gm of sodium chloride, and 2 gm of sec. sodium phosphate diluted with distilled water to 1000 ml (pH 7.2-7.4). Only in the test against streptococci was 1% of glucose added. The age of the primary cultures was about 20 hours. The standardization of the microorganism suspension was effected by means of a photometer according to the method of Eppendorf (test tube diameter 14 mm, filter 546 nm), using for comparison a barium sulfate suspension formed by the addition of 3.0 ml of 1% barium chloride solution to 97 ml of 1% sulfuric acid. After the standardization, the Streptococcus aronson was further diluted to a concentration of 1:15 and the other microorganisms to a concentration of 1:1500 using a sodium chloride solution. 16 mgm of the test compound were placed into a 10 ml measuring flask, and the flask was filled up to the mark with the solvent. The further dilution series was standardized with distilled water or the particular solvent.
(§3) The cavities of microtiter plates were filled with 0.2 ml of nutrient medium. Then, 0.01 ml of the appropriate test compound solution was added, followed by inoculation with 0.01 ml of the standardized microorganism suspension. The bacteria were incubated at 37° C. for 18-20 hours. Control tests using only the solvent were carried out simultaneously.
(§4) The measurement was carried out macroscopically to determine the minimum inhibitory concentration (the lowest still bacteriostatically effective concentration).
(§5) Staphylococcus aureus SG 511, Escherichia coli ATCC 9637 and 11775, Pseudomonas aeruginosa Hamburgensis, ATCC 10145 and Pseudomonas aeruginosa Walter, Serratia marcescens ATCC 13880, Klebsiella pneumoniae ATCC 10031 and 272 and Proteus mirabilis Hamburgensis.

[2] = tested on: Klebsiella pneumoniae ATCC 10031; experiment: serial dilution test in the microtiter system, MIC; type: cell-based; details: ATCC10031, Klebs. pneum. ATCC 10031, 37° C., 18-20 hours
Description: as §1, §2, §3, §4, §5

[3] = tested on: Proteus mirabilis Hamburgensis; experiment: serial dilution test in the microtiter system, MIC; type: cell-based; details: Prot. mirabilis ham., 37° C., 18-20 hours
Description: as §1, §2, §3, §4, §5

[4] = tested on: Serratia marcescens ATCC 13880; experiment: serial dilution test in the microtiter system, MIC; type: cell-based; details: ATCC13880, Serrat. marsec., 37° C., 18-20 hours
Description: as §1, §2, §3, §4, §5

[5] = tested on: Escherichia coli ATCC 11775; experiment: serial dilution test in the microtiter system, MIC; type: cell-based; details: ATCC11775, E. Coli ATCC 11775, 37° C., 18-20 hours
Description: as §1, §2, §3, §4, §5

[6] = tested on: Escherichia coli ATCC 9637; experiment: serial dilution test in the microtiter system, MIC; type: cell-based; details: ATCC9637, E. Coli ATCC 9637, 37° C., 18-20 hours
Description: as §1, §2, §3, §4, §5

[7] = tested on: Pseudomonas aeruginosa ATCC 10145; experiment: serial dilution test in the microtiter system, MIC; type: cell-based; details: ATCC10145, Pseud. aerug. ATCC 10145, 37° C., 18-20 hours
Description: as §1, §2, §3, §4, §5

[8] = tested on: Pseudomonas aeruginosa Hamburgensis; experiment: serial dilution test in the microtiter system, MIC; type: cell-based; details: Pseud. aerug. hamb., 37° C., 18-20 hours
Description: as §1, §2, §3, §4, §5

[9] = tested on: Pseudomonas aeruginosa Walter; experiment: serial dilution test in the microtiter system, MIC; type: cell-based; details: Pseud. aerug. Walter, 37° C., 18-20 hours
Description: as §1, §2, §3, §4, §5

E.coli ATCC 11775 = experiment: in vivo test against experimental E. coli infection in mice; parameters: species or system Female NMRI mice; details: Escherichia coli, ATCC11775, sc, 168 h, dose at which 50% of the animals survived, subcutaneous, three times first day, twice second day, observation 7 days
Description: (§6) The compounds according to the invention were tested in vivo in mice against experimental infections. As pathogenic bacteria E.coli ATCC 11775 and Pseudomonas aeruginosa Walter were used. An intraperitoneal infection was induced in each mouse with 0.2 ml of a 5% mucin suspension of the bacteria corresponding to about 1.4×10^6 E. coli germs and 1.3×10^6 pseudomonas germs/mouse. Female NMRI mice were used, divided into groups of 10 animals. Two groups were untreated and the remaining groups were treated with different doses of the penicillins to be tested to determine the ED50 (dose at which 50% of the animals survived). The groups infected with E. coli were on the first day treated with the test compound three times ([…] post infectionem) and on the second day twice. The groups with the pseudomonas infection were on the first day treated with the test compound 6 times (1, 3, 5, 7, 9 and 11 hours post infectionem) and on the second and third day twice.
(§7) The observation time was in both cases 7 days.

[10] = tested on: Pseudomonas aeruginosa Walter; experiment: in vivo test against experimental Pseudomonas infection in mice; parameters: species or system Female NMRI mice; details: sc, 168 h, dose at which 50% of the animals survived, subcutaneous, 6 times first day, twice on second and third day, observation 7 days
Description: as §6, §7

MIC [1] [µg/mL]	MIC [2] [µg/mL]	MIC [3] [µg/mL]	MIC [4] [µg/mL]	MIC [5] [µg/mL]	MIC [6] [µg/mL]	MIC [7] [µg/mL]	MIC [8] [µg/mL]	MIC [9] [µg/mL]	Compound	ED50 (E.coli ATCC 11775) [mg/kg]	ED50 [10] [mg/kg]
40 (≈ 86.7 µM)	40 (≈ 86.7 µM)	1.25 (≈ 2.71 µM)	5 (≈ 10.8 µM)						CC1(C)S[C@@H]2[C@H](NC(=O)[C@H](NC(=O)N3CCNC3=O)c3ccccc3)C(=O)N2[C@H]1C(=O)O [F, azlocillin, reference compound]		
10	10	0.3	1.25	0.6	0.3	2.5	2.5	2.5	CCOC(=O)CCNc1ncc(NC(=O)NC(C(=O)NC2C(=O)N3C2SC(C)(C)C3C(=O)O)c2ccc(O)cc2)c(O)n1 [D, D-α-[3-(2-{2'-ethoxycarbonylethylamino}-4-hydroxy-5-pyrimidinyl)-ureido]-p-hydroxy-benzylpencillin sodium]	4.2	
40	20	0.6	0.6	1.25	1.25	1.25	1.25	5	COCCNc1ncc(NC(=O)N[C@@H](C(=O)N[C@@H]2C(=O)N3[C@@H]2SC(C)(C)[C@@H]3C(=O)O)c2ccc(O)cc2)c(O)n1 [A, D-α-[3-(4-hydroxy-2-{2'-methoxyethylamino}-5-pyrimidinyl)-ureido]-p-hydroxybenzyl-penicillin sodium]	2	1.5
10	10	0.3	1.25	0.6	0.6	1.25	1.25	5	CC1(C)S[C@@H]2[C@H](NC(=O)[C@H](NC(=O)Nc3cnc(NCCCO)nc3O)c3ccc(O)cc3)C(=O)N2[C@H]1C(=O)O [B, D-α-[3-(4-hydroxy-2-{3'-hydroxypropylamino-}-5-pyrimidinyl)-ureido]-p-hydroxy-benzylpenicillin sodium]	0.8	1.2
